Measured values from PubChem BioAssay (NCI).
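A five-concentration, 48-hour dose response in 96-well plates underlies each endpoint, interpolated linearly between surrounding concentrations. TGI denotes the concentration required for complete inhibition of growth.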

Tests used:
Assay in all cases: DTP human tumour cell line panel, 48 h
UACC-257 melanoma = tested on: UACC-257 melanoma
SNB-75 CNS = tested on: SNB-75 CNS
MOLT-4 leukemia = tested on: MOLT-4 leukemia
NCI-H522 lung = tested on: NCI-H522 lung
786-0 renal = tested on: 786-0 renal
COLO 205 colon = tested on: COLO 205 colon
RXF 393 renal = tested on: RXF 393 renal
PC-3 prostate = tested on: PC-3 prostate
UACC-62 melanoma = tested on: UACC-62 melanoma
KM12 colon = tested on: KM12 colon

## N#C/C=C(/NC(=O)Nc1ccccc1)N1CCCC1
UACC-257 melanoma
  TGI: > 100 µM
SNB-75 CNS
  TGI: > 21.4 µM
MOLT-4 leukemia
  TGI: > 100 µM
NCI-H522 lung
  TGI: > 60.8 µM
786-0 renal
  TGI: > 100 µM
COLO 205 colon
  TGI: > 100 µM
RXF 393 renal
  TGI: > 100 µM
PC-3 prostate
  TGI: > 54.5 µM
UACC-62 melanoma
  TGI: > 100 µM
KM12 colon
  TGI: > 100 µM

## COc1nc2ncc([C@@H](OC(C)=O)[C@@H](COC(C)=O)OC(C)=O)nc2c(=O)n1C
UACC-257 melanoma
  TGI: > 100 µM
SNB-75 CNS
  TGI: > 100 µM
MOLT-4 leukemia
  TGI: > 100 µM
NCI-H522 lung
  TGI: > 100 µM
786-0 renal
  TGI: > 100 µM
COLO 205 colon
  TGI: > 100 µM
RXF 393 renal
  TGI: > 100 µM
PC-3 prostate
  TGI: > 100 µM
UACC-62 melanoma
  TGI: > 100 µM
KM12 colon
  TGI: > 100 µM

## C/C(=N/NC(=S)N1CCCCCC1)c1cccc(/C(C)=N\NC(=S)N2CCCCCC2)n1
UACC-257 melanoma
  TGI: 3.45 µM
SNB-75 CNS
  TGI: 4.68 µM
MOLT-4 leukemia
  TGI: 6.34 µM
NCI-H522 lung
  TGI: 6.42 µM
786-0 renal
  TGI: 2.63 µM
COLO 205 colon
  TGI: 3.23 µM
RXF 393 renal
  TGI: 3.69 µM
PC-3 prostate
  TGI: 5.2 µM
UACC-62 melanoma
  TGI: 5.27 µM
KM12 colon
  TGI: 3.16 µM

## C[N+](C)(N)Cc1nc(-c2ccc(Cl)cc2)no1
UACC-257 melanoma
  TGI: > 100 µM
SNB-75 CNS
  TGI: > 100 µM
MOLT-4 leukemia
  TGI: > 100 µM
NCI-H522 lung
  TGI: > 100 µM
786-0 renal
  TGI: > 100 µM
COLO 205 colon
  TGI: > 100 µM
RXF 393 renal
  TGI: > 100 µM
PC-3 prostate
  TGI: > 100 µM
UACC-62 melanoma
  TGI: > 100 µM
KM12 colon
  TGI: > 100 µM
